From article PMC3421993 (Journal of Experimental Botany, 2012) come the findings set out here.

The structures appear in SMILES notation.

The experiment deals with T1, HRP (horseradish peroxidase) (Armoracia rusticana, UniProt P00433).
T1 sequence (P00433 31-338): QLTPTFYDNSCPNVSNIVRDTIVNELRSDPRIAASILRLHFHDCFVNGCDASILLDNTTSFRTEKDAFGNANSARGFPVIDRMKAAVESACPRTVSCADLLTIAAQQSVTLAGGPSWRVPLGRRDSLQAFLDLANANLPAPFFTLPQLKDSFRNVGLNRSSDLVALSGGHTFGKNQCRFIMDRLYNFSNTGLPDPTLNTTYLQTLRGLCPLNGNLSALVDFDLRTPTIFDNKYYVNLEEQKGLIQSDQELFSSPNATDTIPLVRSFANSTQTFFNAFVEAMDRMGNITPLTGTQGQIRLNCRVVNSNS
The experiment is described as follows: spectrophotometric peroxidase assay, […] nm. The following applies: read-out: K m (mM) / Pyrogallol; 3.3 mM H2O2; 100 mM Na-phosphate pH 6.5. Type of experiment: biochemical.

Regarding `Oc1cccc(O)c1O` [pyrogallol], the Km came out at 1.1 ± 0.1 mM.
